Results reported in US20130064768A1, “LIPOPHILIC CATIONIC PROBE FOR PET-IMAGING” (Medical Research Council, priority 2010, published 2013).
Read-outs that look alike come from different tables or passages of the source. One block for each compound: values may come before it.

Legend:
[1] = Tissue and blood distribution of [3H]TPP compounds after iv tail vein injection
Description: A sample of the [^3H]compound solution injected was retained to calculate the specific activity, which was subsequently used to determine the tissue content of the compound. At the indicated times after injection, the mice were killed by cervical dislocation and a blood sample of ˜100-200 μL was obtained by cardiac puncture. The organs were then removed, cleared of blood, transferred to pre-chilled Eppendorf tubes on ice, weighed and stored at −80° C. until processing. The tissues taken were: heart, kidneys, liver, brain, skeletal muscle (gastrocnemius) and white adipose tissue (subcutaneous). […] The mice were monitored after injection to ensure no pathology or distress and all procedures were carried out under the approval of the University of Otago animal ethics committee.
Extraction of [^3H] Compounds from Tissues Tissues were thawed at room temperature and transferred to 50 mL Falcon tubes. Ice-cold methanol 4° C.; 1 mL/100 mg tissue wet weight) was added to the tissue and the tissue homogenised using an Ultraturrax homogeniser (2×30 s on ice).
The homogenate was transferred in 1 mL batches to 1.5 mL Eppendorf tubes and centrifuged (10,000×g for 8 min at 4° C.). The methanol extract was decanted into a 20 ml glass scintillation vial (Wheaton) and the methanol evaporated under a stream of N2. Further ice-cold methanol (1 mL/100 mg) was added to the tissue homogenate pellets, vortexed for 1 min, centrifuged as above and the methanol extract decanted to a fresh 20 mL glass scintillation vial and evaporated. This procedure was repeated 3 more times to give 5 extracts per tissue sample. […] The specific activity of the injected [^3H] compound was then used to calculate the tissue content uptake as mol compound/g wet weight tissue. The half lives of compounds in organs were determined from the first order rate constants for loss of [^3H] compound from the organs, measured as the slope of ln[TPP compound] against time for the first 5 h after iv injection.

[2] = published values; cited from earlier work
[3] = system: mitochondrial membrane potential; test: Effect of the uncoupler DNP on organ uptake of [3H]FluoroUndecylTPP in vivo; design: species or system mice; conditions: DNP 200 or 300 μg/kg ip 15 min after probe, organs taken 15 min later; dose dependent
Description: (§1) After 15 min the mice were injected ip with DNP (200 or 300 μg/kg) or saline carrier and after a further 15 min later they were killed and the content of [^3H]FluoroUndecylTPP in the tissues determined. Data are means ± range for two mice per condition. B, IAM-TPP is shown being taken up in to mitochondria within a cell where it reacts with thiol proteins to form a thioether adduct that can then be detected by immunoblotting. C, Confocal image of IAM-TPP binding to mitochondria in cells. C2C12 cells were incubated with 1 μM IAM-TPP for 3 h±10 μM FCCP. The cells were then fixed and the location of the TPP moiety within the cells determined by labelling with antiserum against the TPP moiety, visualised by immunofluorescence confocal microscopy. […] The mitochondria (40 μg protein) were separated by SDS-PAGE and proteins that had been labelled with IAM-TPP were detected by immunoblotting using antiserum against the TPP moiety. […]
Therefore it is likely that once the alkylTPP compounds are accumulated within tissues they are predominantly localised within mitochondria, driven by the membrane potential. To see if this was the case in these experiments, it was next determined if the uptake of the alkylTPP compounds in vivo was decreased by lowering the mitochondrial membrane potential. […]

C2C12 cells = test: IAM-TPP uptake into mitochondria within cells (immunocytochemistry, confocal microscopy); type: cell-based, mouse; conditions: 1 μM, 3 h, ±10 μM FCCP
Description: as §1
(§2) To assess uptake of IAM-TPP by mitochondria in vivo, mice were injected iv by the tail vein as above with 500 nmol IAM-TPP in 100 μL sterile PBS. One hour later the mice were killed by cervical dislocation and liver and heart mitochondria prepared by homogenisation followed by differential centrifugation and the protein content determined by the bicinchoninic acid assay using bovine serum albumin as a standard. […]

[4] = system: liver and heart mitochondria; test: IAM-TPP uptake by mitochondria in vivo (immunoblot with anti-TPP antiserum); design: species or system mice; conditions: 500 nmol iv, mitochondria isolated 1 h later
Description: as §1, §2

[5] = Octan-1-ol/PBS partition coefficient; conditions: determined in this study
[6] = system: mitochondrial protein thiols; test: Incubation of IAM-TPP with isolated mitochondria; conditions: data not shown
[7] = 24 h after iv injection, other studies; cited from earlier work
[8] = Monitoring of mice for toxicity after iv injection of TPP cations; type: in vivo; conditions: 100 nmol iv in mice
Description: Female C57/BL6 mice (20-25 g) were maintained on a 12 h light/dark cycle with ad libitum access to standard lab chow and water. […] A sample of the [^3H]compound solution injected was retained to calculate the specific activity, which was subsequently used to determine the tissue content of the compound. At the indicated times after injection, the mice were killed by cervical dislocation and a blood sample of ˜100-200 μL was obtained by cardiac puncture. The organs were then removed, cleared of blood, transferred to pre-chilled Eppendorf tubes on ice, weighed and stored at −80° C. until processing. The tissues taken were: heart, kidneys, liver, brain, skeletal muscle (gastrocnemius) and white adipose tissue (subcutaneous). […] The mice were monitored after injection to ensure no pathology or distress and all procedures were carried out under the approval of the University of Otago animal ethics committee.

[9] = mice, 100 nmol iv bolus, first 5 h after injection

half life for loss from the heart [1, 9]: ~21 h | half life for loss from the kidneys [1, 9]: ~3 h | half life for loss from the liver [1, 9]: ~3 h | enhancement of organ/blood concentration ratio relative to TPMP ([1]; mice, iv): over a hundred-fold
SMILES: CS(=O)(=O)[O-].FCCCCCCCCCCC[P+](c1ccccc1)(c1ccccc1)c1ccccc1 [FluoroUndecylTPP, 11-fluoroundecyltriphenylphosphonium mesylate]
decrease of uptake into the organs by DNP [3]: up to 40%

Octanol/PBS partition coefficient [5]: 19±1
SMILES: CS(=O)(=O)[O-].O=C(CI)NCCCCC[P+](c1ccccc1)(c1ccccc1)c1ccccc1 [IAM-TPP]
localisation within cells (C2C12 cells): uncoupler-sensitive localisation of IAM-TPP within mitochondria | labelling of mitochondrial proteins in vivo [4]: labelling of heart and liver mitochondrial proteins | reaction with protein thiols of isolated mitochondria [6]: rapidly reacted with protein thiols

Continued, compound first:

SMILES: CCCCCCCCCC[P+](c1ccccc1)(c1ccccc1)c1ccccc1 [DecylTPP]
half life for clearance from fat and muscle ([1]; mouse, in vivo, iv): 7 to 12 h | half life for loss from the heart ([1]; mouse, in vivo, iv): ~15 h | half life for loss from the kidneys ([1]; mouse, in vivo, iv): ~3 h | half life for loss from the liver ([1]; mouse, in vivo, iv): ~3 h | Octanol/PBS partition coefficient [2]: 5000

SMILES: COC1=C(OC)C(=O)C(CCCCCCCCCC[P+](c2ccccc2)(c2ccccc2)c2ccccc2)=C(C)C1=O [MitoQ]
MitoQ eliminated [7]: ~80% | uptake by muscle and adipose tissue ([1]; 1 h after 100 nmol iv): lower uptake | uptake by the brain ([1]; 1 h after 100 nmol iv): very little uptake | uptake by the heart ([1]; 1 h after 100 nmol iv): less extensive uptake | uptake by the liver and kidneys ([1]; 1 h after 100 nmol iv): extensive uptake | heart/blood ratio, in ratio (TPMP = 1) ([1]; 1 h after iv injection): 11 | uptake into the heart, ratio (TPMP = 1) ([1]; 1 h after iv injection): 6 | heart/blood ratio, in ratio (TPMP = 1) ([1]; 5 h after iv injection): 26 | uptake into the heart, ratio (TPMP = 1) ([1]; 5 h after iv injection): 10 | half life for loss from the heart [1, 9]: ~15 h | half life for loss from the kidneys [1, 9]: ~4 h | half life for loss from the liver [1, 9]: ~2 h | time of maximum uptake into tissues ([1]; mice, 100 nmol iv, earliest time measurable): 5 min | Octanol/PBS partition coefficient [2]: 2760 | toxicity of the injected amount [8]: non-toxic

SMILES: C[P+](c1ccccc1)(c1ccccc1)c1ccccc1 [TPMP]
half life for loss from the heart [1, 9]: ~2 h | half life for loss from the kidneys [1, 9]: ~2 h | half life for loss from the liver [1, 9]: ~3 h | half life for clearance from fat and muscle ([1]; mice, 100 nmol iv bolus, estimate only): 1 to 2 h
